Test results from patent US9023844B2, “Heterocyclylpyri (mi) dinylpyrazole as fungicidals” (Bayer Intellectual Property GmbH, priority 2011, dated 2015).
Where two headings read alike, the source gives them in different places.

Legend:
[1] = Determination of log P values by HPLC on a reverse phase column (C18), EEC-Directive 79/831 Annex V.A8 (Methods A, B, C); format: physicochemical; conditions: for chromatographic logP: reverse phase C18 HPLC column
Method in brief: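 Three C18 chromatographic methods following EEC-Directive 79/831 Annex V.A8 gave the logP values. Method C (UPLC, 2.1 mm column) ran at 40 °C and 0.8 mL/min with a 3.25 min 10–95% acetonitrile gradient. Methods A and B both ran at 55 °C and 2.0 mL/min, with gradients of 10–95% in 4.25 min and 5–95% in 1.70 min.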

Sphaerotheca fuliginea = assay: Example A: Sphaerotheca test (cucumber) / preventive; format: in vivo
Uromyces appendiculatus = assay: Example B: Uromyces test (beans) / preventive; format: in vivo; conditions: in vivo
Leptosphaeria nodorum = assay: Example C: Leptosphaeria test (wheat) / preventive; format: in vivo
Pyrenophora teres = assay: Example D: Pyrenophora test (barley) / preventive; format: in vivo
Pyricularia oryzae = format: in vivo
Phytophthora infestans = format: in vivo
[2] = test system: DON/Acetyl-DON production by Fusarium graminearum; assay: microbe, parasite or virus in culture; format: cell-based; conditions: at 50 μM; for inhibition at 50 µM: Fusarium graminearum, read-out: Inhibition of DON/AcDON in %
Fusarium graminearum [3] = assay: microbe, parasite or virus in culture; format: cell-based; conditions: for Growth inhibition of Fusarium graminearum in %: at 50 μM; for inhibition at 50 µM: Fusarium graminearum, read-out: Growth inhibition of Fusarium graminearum in %
Puccinia recondita = assay: Example E: Puccinia test (wheat) / preventive; format: in vivo
Plasmopara viticola = assay: Example H: Plasmopara test (grapevines) / preventive; format: in vivo
Septoria tritici = assay: Example J: Septoria tritici test (wheat) / preventive; format: in vivo
[4] = test system: Fusarium nivale (var. majus); assay: Example K: Fusarium nivale (var. majus) test (wheat) / preventive; format: in vivo; conditions: 500 ppm of active ingredient, preventive spray, evaluated 5 days after inoculation
Protocol: After the spray coating has been dried, the plants are slightly injured by using a sandblast and afterwards they are sprayed with a conidia suspension of Fusarium nivale (var. majus).
The test is evaluated 5 days after the inoculation.

Fusarium graminearum [5] = format: in vivo
Venturia inaequalis = assay: Example I: Venturia test (apples) / preventive; conditions: 100 ppm of active ingredient, preventive spray, evaluated 10 days after inoculation
Protocol: After the spray coating has dried on, the plants are inoculated with an aqueous conidia suspension of the causal agent of apple scab (Venturia inaequalis) and then remain for 1 day in an incubation cabinet at approximately 20° C. and a relative atmospheric humidity of 100%.
The plants are then placed in a greenhouse at approximately 21° C. and a relative atmospheric humidity of approximately 90%.
The test is evaluated 10 days after the inoculation.

[6] = Method B (HPLC, reverse phase C18)
[7] = pH 2.7, values in the synthesis examples, HPLC, reverse phase C18, read-out: log P (pH 2.7)
[8] = 500 ppm of active ingredient, cucumber, preventive spray, evaluated 7 days after inoculation
[9] = 500 ppm of active ingredient, wheat, preventive spray, evaluated 7-9 days after inoculation
[10] = 500 ppm of active ingredient, barley, preventive spray, evaluated 7-9 days after inoculation
[11] = 500 ppm of active ingredient, rice, preventive spray, evaluated 7 days after inoculation
[12] = 100 ppm of active ingredient, tomatoes, preventive spray, evaluated 3 days after inoculation
[13] = Method A: HPLC, reverse phase C18, acetonitrile (0.1% formic acid)/water (0.09% formic acid) gradient
[14] = Method C (HPLC, reverse phase C18)

Compound	LogP [1, 6]	efficacy (Sphaerotheca fuliginea; in vivo)	efficacy (Uromyces appendiculatus)	efficacy (Leptosphaeria nodorum; in vivo)	efficacy (Pyrenophora teres; in vivo)	efficacy (Pyricularia oryzae; in vivo)	efficacy (Phytophthora infestans; in vivo)	efficacy (Puccinia recondita; in vivo)	efficacy (Plasmopara viticola; in vivo)	efficacy (Septoria tritici; in vivo)	efficacy [4]	efficacy (Fusarium graminearum [5]; in vivo)	efficacy (Venturia inaequalis)	LogP [1, 14]	further results
CC(=O)Nc1cc(-c2c(-c3ccc(F)cc3)nn3c2OCCC3)ccn1 [Example 2]	1.22	100%	74%	88%	100%	90%	92%	–	–	–	–	–	–	–	Inhibition of DON/AcDON in % [2]: 100%; Growth inhibition of Fusarium graminearum in % (Fusarium graminearum [3]): 57%
O=C(Nc1cc(-c2c(-c3ccc(F)cc3)nn3c2OCC3)ccn1)C1CC1 [Example 3, N-{4-[6-(4-fluorophenyl)-2,3-dihydropyrazolo[5,1-b][1,3]oxazol-7-yl]pyridin-2-yl}cyclopropanecarboxamide]	–	–	–	–	–	–	–	–	–	–	–	–	–	–	chromatographic logP ([1]; Method B (HPLC, reverse phase C18), read-out: LogP): 1.48; chromatographic logP [1, 7]: 1.48; efficacy (Sphaerotheca fuliginea; [8]): 93%; efficacy (Leptosphaeria nodorum; [9]): 88%; efficacy (Pyrenophora teres; [10]): 100%; efficacy (Pyricularia oryzae; [11]): 95%; efficacy (Phytophthora infestans; [12]): 92%; inhibition at 50 µM [2]: 98%; inhibition at 50 µM (Fusarium graminearum [3]): 57%
CCC(=O)Nc1cc(-c2c(-c3ccccc3)nn3c2OCCC3)ccn1 [Example 6]	1.16	98%	89%	90%	95%	94%	96%	100%	94%	100%	100%	100%	100%	–	–
CC(C)C(=O)Nc1cc(-c2c(-c3ccccc3)nn3c2OCCC3)ccn1 [Example 8]	1.39	100%	94%	95%	95%	94%	95%	100%	100%	80%	93%	100%	98%	–	–
CC(C)CC(=O)Nc1cc(-c2c(-c3ccccc3)nn3c2OCCC3)ccn1 [Example 11]	1.66	100%	94%	100%	100%	94%	–	100%	86%	70%	100%	100%	100%	–	–
O=C(CC(F)(F)F)Nc1cc(-c2c(-c3ccccc3)nn3c2OCCC3)ccn1 [Example 17]	1.98	–	94%	–	95%	94%	95%	100%	100%	–	100%	–	100%	–	–
CC(C)CC(=O)Nc1cc(-c2c(-c3ccc(F)cc3)nn3c2OCCC3)ccn1 [Example 25]	1.82	100%	94%	95%	100%	100%	93%	100%	98%	80%	100%	100%	100%	–	–
O=C(Nc1cc(-c2c(-c3ccc(F)cc3F)nn3c2OCCC3)ccn1)C1CCOCC1 [Example 43]	1.39	100%	92%	70%	95%	94%	–	100%	–	88%	88%	100%	–	–	Inhibition of DON/AcDON in % [2]: 100%; Growth inhibition of Fusarium graminearum in % (Fusarium graminearum [3]): 89%
CCC(=O)N(C(C)=O)c1cc(-c2c(-c3ccc(F)cc3)nn3c2OCCC3)ccn1 [Example 52]	–	95%	–	80%	95%	95%	95%	95%	84%	100%	100%	100%	98%	–	LogP [1, 13]: 2.4
CCC(=O)N(C(=O)C1CC1)c1cc(-c2c(-c3ccc(F)cc3)nn3c2OCCC3)ccn1 [Example 54]	–	100%	–	80%	95%	90%	99%	95%	100%	100%	100%	100%	95%	–	LogP [1, 13]: 2.77
CC(=O)Nc1cc(-c2c(-c3ccccc3)nn3c2NCCC3)ccn1 [Example 55, N-[4-(2-phenyl-4,5,6,7-tetrahydropyrazolo[1,5-a]pyrimidin-3-yl)pyridin-2-yl]acetamide]	–	–	–	–	–	–	–	–	–	–	–	–	93%	–	chromatographic logP ([1]; Method C (HPLC, reverse phase C18), read-out: LogP): 1.13; chromatographic logP [1, 7]: 1.13; efficacy (Sphaerotheca fuliginea; [8]): 88%; efficacy (Pyrenophora teres; [10]): 90%; efficacy (Pyricularia oryzae; [11]): 70%; efficacy (Phytophthora infestans; [12]): 91%; inhibition at 50 µM [2]: 100%; inhibition at 50 µM (Fusarium graminearum [3]): 100%
CC(=O)Nc1cc(-c2c(-c3ccc(F)cc3)nn3c2OC[Si](C)(C)C3)ccn1 [Example 61]	–	–	84%	78%	95%	70%	71%	75%	100%	–	–	–	96%	2.01	–
CCC(=O)Nc1cc(-c2c(-c3ccc(F)cc3)nn3c2OCCC3C)ccn1 (stereo not shown) [Example 63, N-{4-[2-(4-fluorophenyl)-7-methyl-6,7-dihydro-5H-pyrazolo[5,1-b][1,3]oxazin-3-yl]pyridin-2-yl}propanamide]	–	–	–	–	–	–	–	–	–	–	100%	–	100%	–	chromatographic logP ([1]; Method A: HPLC, reverse phase C18, acetonitrile (0.1% formic acid)/water (0.09% formic acid) gradient, read-out: LogP): 1.61; chromatographic logP [1, 7]: 1.61; efficacy (Sphaerotheca fuliginea; [8]): 95%; efficacy (Pyrenophora teres; [10]): 100%; efficacy (Puccinia recondita; [9]): 80%; efficacy (Pyricularia oryzae; [11]): 95%; efficacy (Phytophthora infestans; [12]): 95%; efficacy (Plasmopara viticola; 100 ppm of active ingredient, grapevines, preventive spray, evaluated 6 days after inoculation): 95%; efficacy (Septoria tritici; 500 ppm of active ingredient, wheat, preventive spray, evaluated 21 days after inoculation): 94%; efficacy (Fusarium graminearum [5]; 500 ppm of active ingredient, barley, preventive spray, evaluated 5 days after inoculation): 88%
CC(C)C(=O)Nc1cc(-c2c(-c3ccc(F)cc3)nn3c2OC[Si](C)(C)C3)ccn1 [Example 76]	–	95%	94%	75%	95%	90%	–	95%	100%	86%	100%	86%	100%	2.14	–
CCC(=O)Nc1cc(-c2c(-c3ccc(F)cc3)nn3cccnc23)ccn1 [Example 79]	–	80%	–	–	100%	–	95%	–	88%	–	–	–	96%	1.91	–
C[Si]1(C)COc2c(-c3ccnc(NC(=O)C4CC4)c3)c(-c3ccc(F)cc3)nn2C1 [Example 81]	–	98%	94%	75%	90%	95%	–	100%	100%	88%	100%	100%	99%	2.18	–
CCC(=O)Nc1cc(-c2c(-c3cccs3)nn3c2OC[Si](C)(C)C3)ccn1 [Example 82]	–	–	–	–	95%	70%	85%	70%	100%	–	–	–	94%	1.81	Inhibition of DON/AcDON in % [2]: 100%; Growth inhibition of Fusarium graminearum in % (Fusarium graminearum [3]): 100%
CC(C)C(=O)Nc1cc(-c2c(-c3cccs3)nn3c2OC[Si](C)(C)C3)ccn1 [Example 86]	–	–	94%	–	90%	80%	98%	95%	100%	–	–	–	100%	2.28	Inhibition of DON/AcDON in % [2]: 99%; Growth inhibition of Fusarium graminearum in % (Fusarium graminearum [3]): 100%
